For 9 cell lines, relative viability results are on record in the supplement of paper PMC10307832.

Common to all, as to assay: relative viability (nuclei count vs DMSO), 5 days (fraction); higher = more cells survive
Compound in assay [1]: Cn1cc(-c2cnc3ccc4ccc(CS(=O)(=O)NCc5ccccn5)cc4c(=O)c3c2)cn1 [MK-8033] + CC1(C)CCC(c2ccc(Cl)cc2)=C(CN2CCN(c3ccc(C(=O)NS(=O)(=O)c4ccc(N[C@H](CCN5CCOCC5)CSc5ccccc5)c(S(=O)(=O)C(F)(F)F)c4)cc3)CC2)C1 [Navitoclax] (partner 0.5 µM)
An outline of the steps:
(§1)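 The day after seeding in 1536-well plates, lung cancer cell lines were treated by pin tool with a single drug, or with a fixed anchor-drug dose together with five library-drug doses (not always all listed) in √10 steps. After 5 days, a combined fix-and-stain solution (final 0.05% Triton X-100, 1% formaldehyde, 1 ug/ml Hoechst) was added. Nuclei counted on 4× images gave relative viability as treated counts over vehicle counts, reported as the median of duplicate plates.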

Compound in assay [2]: Cn1cc(-c2cnc3ccc4ccc(CS(=O)(=O)NCc5ccccn5)cc4c(=O)c3c2)cn1 [MK-8033] + COc1cc2c(Oc3ccc(NC(=O)C4(C(=O)Nc5ccc(F)cc5)CC4)cc3F)ccnc2cc1OCCCN1CCOCC1 [Foretinib] (partner 0.25 µM)
In a few lines:
as §1

Compound in assay [3]: Cn1cc(-c2cnc3ccc4ccc(CS(=O)(=O)NCc5ccccn5)cc4c(=O)c3c2)cn1 [MK-8033] + Cc1nc(Nc2ncc(C(=O)Nc3c(C)cccc3Cl)s2)cc(N2CCN(CCO)CC2)n1 [Dasatinib] (partner 0.075 µM)
An outline of the steps:
as §1

Compound in assay [4]: Cn1cc(-c2cnc3ccc4ccc(CS(=O)(=O)NCc5ccccn5)cc4c(=O)c3c2)cn1 [MK-8033] + Nc1nc2[nH]cc(CCc3ccc(C(=O)N[C@@H](CCC(=O)O)C(=O)O)cc3)c2c(=O)[nH]1 [Pemetrexed] (partner 0.2 µM)
In a few lines: as §1

For the cell line 201T, the relative viability was found to be 1.26 in assay [1] (first compound 0.02 µM); 1.19 in assay [1] (first compound 0.06325 µM); 1.21 in assay [1] (first compound 0.2 µM); 1.16 in assay [1] (first compound 0.6325 µM); 1.2 in assay [1] (first compound 2 µM); 1.06 in assay [2] (first compound 0.02 µM). In addition, the relative viability was found to be 1.05 in assay [2] (first compound 0.06325 µM); 1.13 in assay [2] (first compound 0.2 µM); 1.19 in assay [2] (first compound 0.6325 µM); 1.1 in assay [2] (first compound 2 µM); 0.646 in assay [3] (first compound 0.02 µM); 0.62 in assay [3] (first compound 0.06325 µM). The relative viability in assay [3] (first compound 0.2 µM) is 0.573; in assay [3] (first compound 0.6325 µM) it was 0.533; in assay [3] (first compound 2 µM), 0.614; in assay [4] (first compound 0.02 µM) it was 0.306; in assay [4] (first compound 0.06325 µM), 0.348; in assay [4] (first compound 0.2 µM) it was 0.301. Also, the relative viability in assay [4] (first compound 0.6325 µM) was 0.291; in assay [4] (first compound 2 µM) it was 0.312.

Turning to A549, the relative viability in assay [1] (first compound 0.02 µM) was 1.22; in assay [1] (first compound 0.06325 µM) it was 1.13; in assay [1] (first compound 0.2 µM) it was 1.16; in assay [1] (first compound 0.6325 µM) it was 1.19; in assay [1] (first compound 2 µM) it was 1.14; in assay [2] (first compound 0.02 µM), 0.962. Moreover, the relative viability in assay [2] (first compound 0.06325 µM) is 0.853; in assay [2] (first compound 0.2 µM) it was 0.892; in assay [2] (first compound 0.6325 µM), 0.985; in assay [2] (first compound 2 µM), 0.945.

Regarding A-427, the relative viability worked out at 0.967 in assay [1] (first compound 0.02 µM); 0.869 in assay [1] (first compound 0.06325 µM); 0.891 in assay [1] (first compound 0.2 µM); 0.912 in assay [1] (first compound 0.6325 µM); 0.868 in assay [1] (first compound 2 µM); 1.04 in assay [2] (first compound 0.02 µM). The relative viability in assay [2] (first compound 0.06325 µM) is 1.04; in assay [2] (first compound 0.2 µM), 0.903; in assay [2] (first compound 0.6325 µM) it was 1.11; in assay [2] (first compound 2 µM), 1; in assay [3] (first compound 0.02 µM), 0.677; in assay [3] (first compound 0.06325 µM), 0.701. In addition, the relative viability came out at 0.661 in assay [3] (first compound 0.2 µM); 0.731 in assay [3] (first compound 0.6325 µM); 0.67 in assay [3] (first compound 2 µM); 0.936 in assay [4] (first compound 0.02 µM); 0.976 in assay [4] (first compound 0.06325 µM); 0.941 in assay [4] (first compound 0.2 µM). The relative viability in assay [4] (first compound 0.6325 µM) is 0.946; in assay [4] (first compound 2 µM), 1.05.

As to ABC-1, the relative viability in assay [2] (first compound 0.02 µM) amounted to 1.03; in assay [2] (first compound 0.06325 µM), 0.97; in assay [2] (first compound 0.2 µM) it was 0.906; in assay [2] (first compound 0.6325 µM), 0.985; in assay [2] (first compound 2 µM), 1.11; in assay [3] (first compound 0.02 µM), 0.735. Further, the relative viability stood at 0.434 in assay [3] (first compound 0.06325 µM), 0.501 in assay [3] (first compound 0.2 µM), 0.491 in assay [3] (first compound 0.6325 µM) and 0.61 in assay [3] (first compound 2 µM).

Regarding BEN, the relative viability came to 0.067 in assay [1] (first compound 0.02 µM); 0.0568 in assay [1] (first compound 0.06325 µM); 0.0526 in assay [1] (first compound 0.2 µM); 0.0753 in assay [1] (first compound 0.6325 µM); 0.0791 in assay [1] (first compound 2 µM); 0.642 in assay [2] (first compound 0.02 µM). Moreover, the relative viability in assay [2] (first compound 0.06325 µM) was 0.541; in assay [2] (first compound 0.2 µM), 0.527; in assay [2] (first compound 0.6325 µM) it was 0.606; in assay [2] (first compound 2 µM), 0.646; in assay [3] (first compound 0.02 µM), 0.343; in assay [3] (first compound 0.06325 µM), 0.289. For the same cell line, the relative viability in assay [3] (first compound 0.2 µM) was 0.318; in assay [3] (first compound 0.6325 µM) it was 0.326; in assay [3] (first compound 2 µM), 0.307; in assay [4] (first compound 0.02 µM) it was 0.924; in assay [4] (first compound 0.06325 µM), 0.694; in assay [4] (first compound 0.2 µM), 0.752. The relative viability in assay [4] (first compound 0.6325 µM) was found to be 0.765; in assay [4] (first compound 2 µM), 0.758.

Regarding CAL-12T, the relative viability in assay [1] (first compound 0.02 µM) came out at 1.19; in assay [1] (first compound 0.06325 µM), 1.2; in assay [1] (first compound 0.2 µM), 1.15; in assay [1] (first compound 0.6325 µM), 0.92; in assay [1] (first compound 2 µM) it was 1.28; in assay [2] (first compound 0.02 µM), 1.05. Also, the relative viability in assay [2] (first compound 0.06325 µM) was 1.14; in assay [2] (first compound 0.2 µM), 1.03; in assay [2] (first compound 0.6325 µM), 1.09; in assay [2] (first compound 2 µM), 1.11; in assay [3] (first compound 0.02 µM) it was 0.478; in assay [3] (first compound 0.06325 µM) it was 0.3. Besides, the relative viability was 0.405 in assay [3] (first compound 0.2 µM); 0.367 in assay [3] (first compound 0.6325 µM); 0.456 in assay [3] (first compound 2 µM); 1.26 in assay [4] (first compound 0.02 µM); 1.18 in assay [4] (first compound 0.06325 µM); 1.12 in assay [4] (first compound 0.2 µM). Also, the relative viability in assay [4] (first compound 0.6325 µM) is 1.35; in assay [4] (first compound 2 µM) it was 1.18.

Take COR-L23: the relative viability in assay [1] (first compound 0.02 µM) stood at 0.938; in assay [1] (first compound 0.06325 µM), 0.88; in assay [1] (first compound 0.2 µM) it was 0.948; in assay [1] (first compound 0.6325 µM) it was 1.01; in assay [1] (first compound 2 µM) it was 0.885; in assay [2] (first compound 0.02 µM), 0.934. For the same cell line, the relative viability stood at 0.997 in assay [2] (first compound 0.06325 µM); 0.986 in assay [2] (first compound 0.2 µM); 1.04 in assay [2] (first compound 0.6325 µM); 0.993 in assay [2] (first compound 2 µM); 0.458 in assay [3] (first compound 0.02 µM); 0.427 in assay [3] (first compound 0.06325 µM). Further, the relative viability in assay [3] (first compound 0.2 µM) was 0.522; in assay [3] (first compound 0.6325 µM), 0.466; in assay [3] (first compound 2 µM), 0.489; in assay [4] (first compound 0.02 µM) it was 0.2; in assay [4] (first compound 0.06325 µM), 0.197; in assay [4] (first compound 0.2 µM) it was 0.219. In addition, the results for the relative viability in assay [4] (first compound 0.6325 µM) and in assay [4] (first compound 2 µM) were 0.212 and 0.197, respectively.

COR-L 105: the relative viability in assay [1] (first compound 0.02 µM) is 0.689; in assay [1] (first compound 0.06325 µM), 0.777; in assay [1] (first compound 0.2 µM), 0.779; in assay [1] (first compound 0.6325 µM), 0.694; in assay [1] (first compound 2 µM), 0.906; in assay [2] (first compound 0.02 µM) it was 1.35. Besides, the relative viability in assay [2] (first compound 0.06325 µM) came to 0.976; in assay [2] (first compound 0.2 µM), 0.992; in assay [2] (first compound 0.6325 µM), 1.05; in assay [2] (first compound 2 µM), 0.907; in assay [3] (first compound 0.02 µM), 0.368; in assay [3] (first compound 0.06325 µM), 0.303. For the same cell line, the relative viability stood at 0.328 in assay [3] (first compound 0.2 µM); 0.335 in assay [3] (first compound 0.6325 µM); 0.402 in assay [3] (first compound 2 µM); 1.22 in assay [4] (first compound 0.02 µM); 0.744 in assay [4] (first compound 0.06325 µM); 1.14 in assay [4] (first compound 0.2 µM). Moreover, the results for the relative viability in assay [4] (first compound 0.6325 µM) and in assay [4] (first compound 2 µM) were 1.12 and 1.05, respectively.

As to Calu-6, the relative viability turned out to be 0.784 in assay [1] (first compound 0.02 µM); 0.799 in assay [1] (first compound 0.06325 µM); 0.691 in assay [1] (first compound 0.2 µM); 0.869 in assay [1] (first compound 0.6325 µM); 0.905 in assay [1] (first compound 2 µM); 0.833 in assay [2] (first compound 0.02 µM). In addition, the relative viability worked out at 0.815 in assay [2] (first compound 0.06325 µM), 0.874 in assay [2] (first compound 0.2 µM), 0.914 in assay [2] (first compound 0.6325 µM) and 0.81 in assay [2] (first compound 2 µM).
